Key:
[1] = target: T1, Transient receptor potential cation channel subfamily V member 1 (Homo sapiens, UniProt Q8NER1); experiment: Antagonist activity at human TRPV1 expressed in human 1321N1 cells assessed as inhibition of capsaicin-induced calcium influx by FLIPR assay; format: functional, cell-based
Cavia porcellus [2] = experiment: Antihyperalgesic activity in guinea pig assessed as reversal of FCA-induced inflammatory pain at 30 mg/kg, sc; format: functional; conditions: route subcutaneous
Liver microsomes = experiment: Intrinsic clearance in human liver microsomes; format: ADME, Microsome
[3] = Intrinsic clearance in guinea pig liver microsomes; format: ADME, Cavia porcellus, Microsome
[4] = Blood clearance in rat at 1 mg/kg, iv; format: ADME, organism-based; design: dose 1 mg/kg, route intravenous; conditions: whole blood
[5] = Half life in rat at 1 mg/kg, iv; format: ADME, organism-based; design: dose 1 mg/kg, route intravenous; conditions: in vivo
Cavia porcellus [6] = experiment: Antihyperalgesic activity in guinea pig assessed as reversal of FCA-induced inflammatory pain at 5 mg/kg, ip; format: functional; conditions: route intraperitoneal
Cavia porcellus [7] = organism: Cavia porcellus; experiment: Antihyperalgesic activity against FCA-induced inflammatory pain in guinea pig assessed as paw withdrawal after 1 hr; format: functional
[8] = target: T1, Transient receptor potential cation channel subfamily V member 1; experiment: Inhibition of human TRPV1 expressed in HEK293 cells assessed as reversible inhibition of heat-activated current at 1 uM by whole cell patch clamp assay relative to control; format: cell-based
[9] = Oral bioavailability in guinea pig; format: ADME, organism-based, Cavia porcellus; conditions: in vivo
[10] = target: T1, Transient receptor potential cation channel subfamily V member 1; experiment: Antagonist activity at human TRPV1 expressed in HEK293 cells assessed as inhibition of capsaicin-induced calcium influx at 1 uM by whole cell patch clamp assay; format: functional, cell-based
[11] = target: T1, Transient receptor potential cation channel subfamily V member 1; experiment: Antagonist activity at human TRPV1 expressed in HEK293 cells assessed as inhibition of capsaicin-induced calcium influx by whole cell patch clamp assay; format: functional, cell-based
[12] = target: T1, Transient receptor potential cation channel subfamily V member 1; experiment: Antagonist activity at human TRPV1 expressed in HEK293 cells assessed as inhibition of pH 5.3 acid-induced calcium influx at 100 nM by whole cell patch clamp assay; format: functional, cell-based
[13] = target: T1, Transient receptor potential cation channel subfamily V member 1; experiment: Antagonist activity at human TRPV1 expressed in HEK293 cells assessed as inhibition of pH 5.3 acid-induced calcium influx by whole cell patch clamp assay; format: functional, cell-based
[14] = target: T1, Transient receptor potential cation channel subfamily V member 1; experiment: Antagonist activity at human TRPV1 expressed in HEK293 cells assessed as inhibition of pH 5.3 acid-induced calcium influx by FLIPR assay; format: functional, cell-based
[15] = target: Transient receptor potential cation channel subfamily V member 1 (Cavia porcellus, UniProt Q6R5A3); experiment: Antagonist activity at guinea pig TRPV1 expressed in HEK293 cells assessed as inhibition of pH 5.3 acid-induced calcium influx by FLIPR assay; format: functional, cell-based
Chain of Transient receptor potential cation channel subfamily V member 1 (Cavia porcellus, UniProt Q6R5A3) (Q6R5A3 whole entry): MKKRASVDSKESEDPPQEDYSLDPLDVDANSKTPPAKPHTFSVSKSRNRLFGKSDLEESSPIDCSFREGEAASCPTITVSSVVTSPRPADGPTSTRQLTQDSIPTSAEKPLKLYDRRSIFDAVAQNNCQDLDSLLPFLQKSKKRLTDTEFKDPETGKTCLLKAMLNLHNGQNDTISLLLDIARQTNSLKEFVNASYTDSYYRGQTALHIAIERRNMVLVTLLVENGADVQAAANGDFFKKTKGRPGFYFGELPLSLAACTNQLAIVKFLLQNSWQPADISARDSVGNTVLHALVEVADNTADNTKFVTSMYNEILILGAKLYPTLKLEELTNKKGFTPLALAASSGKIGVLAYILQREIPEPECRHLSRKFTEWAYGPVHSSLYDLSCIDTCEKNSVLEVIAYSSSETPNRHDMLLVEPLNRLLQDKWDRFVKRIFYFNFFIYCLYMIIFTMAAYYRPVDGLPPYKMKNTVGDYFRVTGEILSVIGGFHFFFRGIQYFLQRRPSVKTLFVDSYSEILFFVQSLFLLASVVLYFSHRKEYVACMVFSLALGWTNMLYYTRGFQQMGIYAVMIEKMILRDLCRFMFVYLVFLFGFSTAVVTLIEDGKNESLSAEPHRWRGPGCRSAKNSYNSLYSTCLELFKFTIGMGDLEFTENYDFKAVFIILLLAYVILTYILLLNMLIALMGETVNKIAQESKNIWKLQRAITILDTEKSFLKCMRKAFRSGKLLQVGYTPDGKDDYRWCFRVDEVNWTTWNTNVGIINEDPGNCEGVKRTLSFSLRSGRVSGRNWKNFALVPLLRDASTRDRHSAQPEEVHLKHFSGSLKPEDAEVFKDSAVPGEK

[16] = target: Transient receptor potential cation channel subfamily V member 1 (Rattus norvegicus, UniProt O35433); experiment: Antagonist activity at rat TRPV1 expressed in HEK293 cells assessed as inhibition of pH 5.3 acid-induced calcium influx by FLIPR assay; format: functional, cell-based
Chain of Transient receptor potential cation channel subfamily V member 1 (Rattus norvegicus, UniProt O35433) (O35433 whole entry): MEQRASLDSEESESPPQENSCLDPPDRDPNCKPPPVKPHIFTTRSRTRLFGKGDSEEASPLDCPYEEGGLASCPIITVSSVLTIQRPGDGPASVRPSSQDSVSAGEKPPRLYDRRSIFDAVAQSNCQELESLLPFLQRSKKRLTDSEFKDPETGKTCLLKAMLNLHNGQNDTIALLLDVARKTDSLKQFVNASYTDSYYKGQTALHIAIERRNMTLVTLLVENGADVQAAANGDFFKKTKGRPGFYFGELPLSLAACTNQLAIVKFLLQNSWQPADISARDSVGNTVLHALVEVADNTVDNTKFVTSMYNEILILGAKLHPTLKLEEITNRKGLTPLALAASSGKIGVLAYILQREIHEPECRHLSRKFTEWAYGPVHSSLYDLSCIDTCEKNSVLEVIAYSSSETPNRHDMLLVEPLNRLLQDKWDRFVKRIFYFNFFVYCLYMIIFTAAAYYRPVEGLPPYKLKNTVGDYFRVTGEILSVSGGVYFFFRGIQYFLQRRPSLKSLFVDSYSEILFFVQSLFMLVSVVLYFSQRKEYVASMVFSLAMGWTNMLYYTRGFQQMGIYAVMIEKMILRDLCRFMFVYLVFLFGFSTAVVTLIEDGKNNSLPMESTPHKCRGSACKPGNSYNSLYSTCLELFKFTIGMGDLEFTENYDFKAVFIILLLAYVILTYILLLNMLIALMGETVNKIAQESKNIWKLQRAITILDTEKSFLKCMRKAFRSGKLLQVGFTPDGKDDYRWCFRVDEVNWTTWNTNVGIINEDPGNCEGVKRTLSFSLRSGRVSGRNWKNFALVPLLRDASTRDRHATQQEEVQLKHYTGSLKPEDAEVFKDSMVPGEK

[17] = target: T1, Transient receptor potential cation channel subfamily V member 1; conditions: HEK293
Description: Antagonist activity at human TRPV1 expressed in HEK293 cells assessed as inhibition of capsaicin-induced calcium influx by FLIPR assay

[18] = target: Transient receptor potential cation channel subfamily V member 1 (Cavia porcellus) (UniProt Q6R5A3); conditions: HEK293
Chain of Transient receptor potential cation channel subfamily V member 1 (Cavia porcellus) (Q6R5A3 whole entry): as the sequence (Q6R5A3 whole entry) above
Description: Antagonist activity at guinea pig TRPV1 expressed in HEK293 cells assessed as inhibition of capsaicin-induced calcium influx by FLIPR assay

[19] = target: Transient receptor potential cation channel subfamily V member 1 (Rattus norvegicus) (UniProt O35433); conditions: HEK293
Chain of Transient receptor potential cation channel subfamily V member 1 (Rattus norvegicus) (O35433 whole entry): as the sequence (O35433 whole entry) above
Description: Antagonist activity at rat TRPV1 expressed in HEK293 cells assessed as inhibition of capsaicin-induced calcium influx by FLIPR assay

Cytochrome P450 3A4 = Cytochrome P450 3A4 (Homo sapiens, UniProt P08684); experiment: Inhibition of CYP3A4; format: ADME
Chain of Cytochrome P450 3A4 (P08684 whole entry): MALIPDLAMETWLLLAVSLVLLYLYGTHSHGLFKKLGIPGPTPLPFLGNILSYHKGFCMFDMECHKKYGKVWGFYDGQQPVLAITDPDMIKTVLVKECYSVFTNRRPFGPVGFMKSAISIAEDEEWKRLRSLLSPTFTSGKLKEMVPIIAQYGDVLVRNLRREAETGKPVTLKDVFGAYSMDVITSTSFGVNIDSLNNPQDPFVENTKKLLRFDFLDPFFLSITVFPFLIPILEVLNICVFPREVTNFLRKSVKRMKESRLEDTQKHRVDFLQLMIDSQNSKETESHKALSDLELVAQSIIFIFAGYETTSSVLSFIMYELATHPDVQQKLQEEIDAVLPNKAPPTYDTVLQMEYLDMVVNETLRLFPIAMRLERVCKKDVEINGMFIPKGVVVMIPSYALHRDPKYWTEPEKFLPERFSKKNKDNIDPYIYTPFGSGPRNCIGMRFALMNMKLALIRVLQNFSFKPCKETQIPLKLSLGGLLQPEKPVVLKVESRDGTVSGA

T1 sequence (Q8NER1 whole entry): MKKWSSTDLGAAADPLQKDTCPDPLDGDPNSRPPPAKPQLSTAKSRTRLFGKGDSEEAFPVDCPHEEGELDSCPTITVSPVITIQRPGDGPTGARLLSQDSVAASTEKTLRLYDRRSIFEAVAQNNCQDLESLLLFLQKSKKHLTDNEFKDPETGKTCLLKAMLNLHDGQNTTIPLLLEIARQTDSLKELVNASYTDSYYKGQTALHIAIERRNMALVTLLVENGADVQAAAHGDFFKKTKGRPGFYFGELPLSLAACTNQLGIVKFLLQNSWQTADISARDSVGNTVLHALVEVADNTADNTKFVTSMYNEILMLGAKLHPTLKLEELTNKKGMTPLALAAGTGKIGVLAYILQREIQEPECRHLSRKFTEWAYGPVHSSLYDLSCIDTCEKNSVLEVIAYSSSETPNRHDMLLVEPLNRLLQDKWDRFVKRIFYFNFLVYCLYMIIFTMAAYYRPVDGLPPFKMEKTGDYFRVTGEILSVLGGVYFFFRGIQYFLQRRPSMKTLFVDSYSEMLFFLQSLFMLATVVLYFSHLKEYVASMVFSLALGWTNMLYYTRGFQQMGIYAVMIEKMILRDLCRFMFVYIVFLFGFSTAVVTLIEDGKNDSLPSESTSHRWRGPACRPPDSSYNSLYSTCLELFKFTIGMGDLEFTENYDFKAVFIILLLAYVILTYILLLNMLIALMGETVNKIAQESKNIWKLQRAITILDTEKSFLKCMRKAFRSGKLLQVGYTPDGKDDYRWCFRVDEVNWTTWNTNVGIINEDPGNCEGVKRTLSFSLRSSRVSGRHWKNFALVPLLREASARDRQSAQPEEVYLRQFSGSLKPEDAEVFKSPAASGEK

Cc1nc(-c2ccc(F)cc2)ccc1C(=O)Nc1ccc2sc(N(C)C)nc2c1
pKb [1]: < 5.8

O=C(Nc1ccc2cccnc2c1)c1ccc(-c2ccc(Cl)cc2)nc1
pKb [1]: 7.8

Cc1nc2ccc(NC(=O)c3ccc(-c4ccc(F)cc4)nc3C)cc2[nH]1
pKb [1]: 6

O=C(Nc1ccc2cccnc2c1)c1ccc(-c2ccccc2)nc1
Activity (Cavia porcellus [2]): 32% | CL (Liver microsomes): 3.1 mL/min/g | CL [3]: 3.9 mL/min/g | clearance [4]: 33 mL/min/kg | half-life [5]: 21.6 min

N#Cc1ccc(C(=O)Nc2ccc3cccnc3c2)cn1
pKb [1]: < 6.7

Cc1nc2ccc(NC(=O)c3ccc(-c4ccc(F)cc4)nc3C)cc2o1
pKb [1]: < 6.7

Cc1nc(-c2ccc(F)cc2)ccc1C(=O)Nc1ccc2ccn(C)c2c1
pKb [1]: < 6.5

Cc1nc(-c2ccc(F)cc2)ccc1C(=O)Nc1ccc2nc[nH]c2c1
pKb [1]: 7.2

O=C(Nc1ccc2cccnc2c1)c1ccc(-c2cccc(F)c2)nc1
pKb [1]: 8.6

Cc1nc2cc(NC(=O)c3ccc(-c4ccc(F)cc4)nc3C)ccc2s1
Activity (Cavia porcellus [6]): 48% | Activity (Cavia porcellus [7]): 68% | ED50 (Cavia porcellus [7]; Cavia porcellus, 1 h): 0.53 mg/kg | inhibition [8]: 87% | bioavailability [9]: 24% | CL (Liver microsomes): 2.2 mL/min/g | CL [3]: 2.7 mL/min/g | pKb [1]: 7.4 | inhibition [10]: 100% | IC50 [11]: 0.049 µM | inhibition [12]: 96% | IC50 [13]: 0.009 µM | IC50 [14]: 0.0398 µM | IC50 [15]: 0.0631 µM | IC50 [16]: 0.1 µM | pKb [17]: 7.2 | pKb [18]: 7.4 | pKb [19]: 7

Cc1nc(-c2ccc(F)cc2)ccc1C(=O)Nc1ccc2cccnc2c1
Activity (Cavia porcellus [6]): 42% | IC50 (Cytochrome P450 3A4): < 10 µM | pKb [1]: 8.5

Cc1nc(-c2ccc(F)cc2)ccc1C(=O)Nc1ccc2scnc2c1
pKb [1]: 7.5

Cc1nc(-c2ccc(F)cc2)ccc1C(=O)Nc1ccc2ncsc2c1
pKb [1]: 6.7

Cc1cc(-c2ccccc2)ncc1C(=O)Nc1ccc2cccnc2c1
pKb [1]: 6.7

O=C(Nc1ccc2cccnc2c1)c1ccc(-c2ccc(C(F)(F)F)cc2)nc1
pKb [1]: 7.3

Cc1nc(-c2ccc(F)cc2)ccc1C(=O)Nc1ccc2ncn(C)c2c1
pKb [1]: 6.7

O=C(Nc1ccc2cccnc2c1)c1ccc(Cl)nc1
pKb [1]: < 6.7

Cc1nc(-c2ccc(F)cc2)ccc1C(=O)Nc1ccc2sc(CN(C)C)nc2c1
pKb [1]: < 6.7

Cc1nc(-c2ccccc2)ccc1C(=O)Nc1ccc2cccnc2c1
pKb [1]: 9

O=C(Nc1ccc2cccnc2c1)c1ccc(-c2ccccc2F)nc1
pKb [1]: 8.7

N#Cc1ccc(-c2ccc(C(=O)Nc3ccc4cccnc4c3)cn2)cc1
pKb [1]: < 6.6

Cc1nc(-c2ccc(F)cc2)ccc1C(=O)Nc1ccc2c(C)n[nH]c2c1
pKb [1]: 6.9

O=C(Nc1ccc2cccnc2c1)c1ccc(-c2ccc(F)cc2)nc1
CL (Liver microsomes): 1.7 mL/min/g | CL [3]: 42 mL/min/g | pKb [1]: 8.2

Cc1nc(-c2ccc(F)cc2)ccc1C(=O)Nc1ccc2cn[nH]c2c1
pKb [1]: 7.5
